{"source": "patent US20250144015A1", "about": "“Pharmaceutical Compositions” (Extrovis AG, priority 2023, published 2025)", "origin": "cited, not measured here", "system": "opioid craving", "settings": "single high dose of 16 mg or 32 mg; opioid-dependent patients"}
{"molecule": "CO[C@@]12CC[C@@]3(C[C@@H]1[C@](C)(O)C(C)(C)C)C1Cc4ccc(O)c5c4[C@@]3(CCN1CC1CC1)[C@H]2O5", "note": "[buprenorphine, [5α,7α(S)]-17-(Cyclopropylmethyl)-α-(1,1-dimethylethyl)-4,5-epoxy-18,19-dihydo-3-hydroxy-6-methoxy-α-methyl-6,14-ethenomorphinan-7-methanol]", "values": [{"measurement": "Effect on opioid craving", "result": "reduce opioid craving"}]}
